Assays:
Format in all cases: in vivo
Barnyardgrass = test: Pre-emergent herbicidal activity (Table A); settings: Echinochloa crus-galli, pre-emergence, Bygr, 11.2 kg/ha, 10-14 days, read-out: herbicidal rating (% inhibition)
Outline: (§1)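 Seeds or perennial propagules set on compacted topsoil, then covered with soil mixed with a known amount of test compound applied in acetone or water carrier. Ratings assigned on a scale based on percent inhibition of each species.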

Cocklebur = test: Pre-emergent herbicidal activity (Table A); settings: Xanthium strumarium, pre-emergence, Cobu, 11.2 kg/ha, 10-14 days, read-out: herbicidal rating (% inhibition)
Outline: as §1

Downy Brome = test: Pre-emergent herbicidal activity (Table A); settings: Bromus tectorum, pre-emergence, Dobr, 11.2 kg/ha, 10-14 days, read-out: herbicidal rating (% inhibition)
Outline: as §1

Morningglory = test: Pre-emergent herbicidal activity (Table A); settings: Ipomoea, pre-emergence, Mogl, 11.2 kg/ha, 10-14 days, read-out: herbicidal rating (% inhibition)
Outline: as §1

Velvetleaf = test: Pre-emergent herbicidal activity (Table A); settings: Abutilon theophrasti, pre-emergence, Vele, 11.2 kg/ha, 10-14 days, read-out: herbicidal rating (% inhibition)
Outline: as §1

Yellow Nutsedge = test: Pre-emergent herbicidal activity (Table A); settings: Cyperus, pre-emergence, Yens, 11.2 kg/ha, 10-14 days, read-out: herbicidal rating (% inhibition)
Outline: as §1

Bygr = test: plant injury after spraying emerged plants (Table D); design: scale not given here
Excerpt: (§2) Topsoil (silt loam) is sieved through a screen having 1.27 cm openings. […] This mixture is steam sterilized and then placed in aluminum pans 6.985 cm deep having ten holes in the bottom each 0.635 cm in diameter. The soil mixture is compacted to a depth of 1.27 cm. from the top of the pan. A predetermined number of seeds of each of several dicotyledonous and monocotyledonous annual plant species and/or vegetative propagules for the perennial plant species are placed on the soil and pressed into the soil surface. The seeds and/or vegetative propagules are covered with 1.27 cm of a mixture of 50% topsoil and 50% of a mixture of Canadian sphagnum peat moss, vermiculite and a wetting agent. The pans are then placed on a capillary mat on a greenhouse bench and subirrigated as needed.
(§3) In the following Table D the legends used to identify the plant species are the same as those used in the preceding Table B.

Cobu = test: as above; design: scale not given here
Excerpt: as §2, §3

Corn = test: as above; design: scale not given here
Excerpt: as §2, §3

Grft = test: as above; design: scale not given here
Excerpt: as §2, §3

Grso = test: as above; design: scale not given here
Excerpt: as §2, §3

Mogl = test: as above; design: scale not given here
Excerpt: as §2, §3

Rice = test: as above; design: scale not given here
Excerpt: as §2, §3

Sobe = test: as above; design: scale not given here
Excerpt: as §2, §3

Whez = test: as above; design: scale not given here
Excerpt: as §2, §3

Dobr = test: as above
Excerpt: Topsoil (silt loam) is sieved through a screen having 1.27 cm openings. In some of the tests the soil was mixed with fertilizer (1225 g/cu. m of 12/5/9 containing isobutylidene diurea), while in other tests the fertilizer was omitted. This mixture is steam sterilized and then placed in aluminum pans 6.985 cm deep having ten holes in the bottom each 0.635 cm in diameter. The soil mixture is compacted to a depth of 1.27 cm. from the top of the pan. A predetermined number of seeds of each of several dicotyledonous and monocotyledonous annual plant species and/or vegetative propagules for the perennial plant species are placed on the soil and pressed into the soil surface. The seeds and/or vegetative propagules are covered with 1.27 cm of a mixture of 50% topsoil and 50% of a mixture of Canadian sphagnum peat moss, vermiculite and a wetting agent. The pans are then placed on a capillary mat on a greenhouse bench and subirrigated as needed. After the plants reach the desired stage (9 to 14 days, 1 to 3 true leaf stage), each pan (except the control pans) is removed to a spraying chamber and sprayed by means of an atomizer, operating at a spray pressure of 170.3 kPa ([…]) at the application rates noted in Table D. In the spray solution is an amount of an emulsifying agent mixture (35% butylamine salt of dodecylbenzenesulfonic acid and 65% tall oil condensed with ethylene oxide in the ratio of 11 mols of ethylene oxide/mol of tall oil) to give a spray solution or suspension. The spray solution or suspension contains a sufficient amount of the candidate chemical in order to give application rates of the active ingredient corresponding to those shown in Table D below while applying a total amount of solution or suspension equivalent to 1870 L/Ha (200 gallons/acre). The pans are returned to the greenhouse and watered as before and the injury to the plants as compared to the control pans is observed at approximately 10-14 days (usually 11 days).
as §3

For `COC(=O)c1c(OC)nc(C(F)(F)F)c(C(=O)n2cccn2)c1CC1CC1` [Compound 116, 3-pyridinecarboxylic acid, 4-(cyclopropylmethyl)-2-methoxy-5-(1H-pyrazo1-1-ylcarbonyl)-6-(trifluoromethyl)-, methyl ester], the inhibition at 11200 g/ha (Barnyardgrass) was 75 to 100%, the inhibition at 11200 g/ha (Cocklebur) was 50 to 74% and the inhibition at 11200 g/ha (Downy Brome) was 75 to 100%. The inhibition at 11200 g/ha (Morningglory) was 75 to 100%, the inhibition at 11200 g/ha (Velvetleaf) was 75 to 100% and the inhibition at 11200 g/ha (Yellow Nutsedge) was 75 to 100%. The “plant injury rating, Bygr” value (Bygr; 0.0701 kg/ha) was 0, the “plant injury rating, Bygr” value (Bygr; 0.2803 kg/ha) was 0 and the “plant injury rating, Bygr” value (Bygr; 1.1210 kg/ha) was 0. For the same molecule, the “plant injury rating, Bygr” value (Bygr; 5.6050 kg/ha) was 1, the “plant injury rating, Cobu” value (Cobu; 0.0701 kg/ha) was 0 and the “plant injury rating, Cobu” value (Cobu; 0.2803 kg/ha) was 1. For the same molecule, the “plant injury rating, Cobu” value (Cobu; 1.1210 kg/ha) was 2, the “plant injury rating, Cobu” value (Cobu; 5.6050 kg/ha) was 2 and the “plant injury rating, Corn” value (Corn; 0.0701 kg/ha) was 0. The “plant injury rating, Corn” value (Corn; 0.2803 kg/ha) was 0, the “plant injury rating, Corn” value (Corn; 1.1210 kg/ha) was 2 and the “plant injury rating, Corn” value (Corn; 5.6050 kg/ha) was 2. The “plant injury rating, Grft” value (Grft; 0.0701 kg/ha) was 0, the “plant injury rating, Grft” value (Grft; 0.2803 kg/ha) was 0 and the “plant injury rating, Grft” value (Grft; 1.1210 kg/ha) was 0. For the same molecule, the “plant injury rating, Grft” value (Grft; 5.6050 kg/ha) was 1, the “plant injury rating, Grso” value (Grso; 0.2803 kg/ha) was 0 and the “plant injury rating, Grso” value (Grso; 1.1210 kg/ha) was 0. The “plant injury rating, Grso” value (Grso; 5.6050 kg/ha) was 1, the “plant injury rating, Mogl” value (Mogl; 0.0701 kg/ha) was 2 and the “plant injury rating, Mogl” value (Mogl; 0.2803 kg/ha) was 1. For the same molecule, the “plant injury rating, Mogl” value (Mogl; 1.1210 kg/ha) was 2, the “plant injury rating, Mogl” value (Mogl; 5.6050 kg/ha) was 2 and the “plant injury rating, Rice” value (Rice; 0.0701 kg/ha) was 0. The “plant injury rating, Rice” value (Rice; 0.2803 kg/ha) was 0, the “plant injury rating, Rice” value (Rice; 1.1210 kg/ha) was 0 and the “plant injury rating, Rice” value (Rice; 5.6050 kg/ha) was 0. The “plant injury rating, Sobe” value (Sobe; 0.0701 kg/ha) was 1, the “plant injury rating, Sobe” value (Sobe; 0.2803 kg/ha) was 1 and the “plant injury rating, Sobe” value (Sobe; 1.1210 kg/ha) was 2. The “plant injury rating, Sobe” value (Sobe; 5.6050 kg/ha) was 2, the “plant injury rating, Whez” value (Whez; 0.0701 kg/ha) was 0 and the “plant injury rating, Whez” value (Whez; 0.2803 kg/ha) was 0. For the same molecule, the “plant injury rating, Whez” value (Whez; 1.1210 kg/ha) was 0, the “plant injury rating, Whez” value (Whez; 5.6050 kg/ha) was 0 and the “plant injury rating, Dobr” value (Dobr; 0.0701 kg/ha) was 0. For the same molecule, the “plant injury rating, Dobr” value (Dobr; 0.2803 kg/ha) was 0, the “plant injury rating, Dobr” value (Dobr; 1.1210 kg/ha) was 0 and the “plant injury rating, Dobr” value (Dobr; 5.6050 kg/ha) was 0.
`COC(=O)c1c(OC)nc(C(F)(F)Cl)c(C(=O)OC)c1CC(C)C` [Compound 30, 3,5-pyridinedicarboxylic acid, 2-(chlorodifluoromethyl)-6-methoxy-4-(2-methylpropyl)-, dimethyl ester] showed an inhibition at 11200 g/ha (Barnyardgrass) of 75 to 100%, an inhibition at 11200 g/ha (Cocklebur) of 25 to 49% and an inhibition at 11200 g/ha (Downy Brome) of 75 to 100%. The inhibition at 11200 g/ha (Morningglory) was 75 to 100%, the inhibition at 11200 g/ha (Velvetleaf) was 75 to 100% and the inhibition at 11200 g/ha (Yellow Nutsedge) was 50 to 74%. For the same molecule, the “plant injury rating, Bygr” value (Bygr; 0.5605 kg/ha) was 0, the “plant injury rating, Bygr” value (Bygr; 1.1210 kg/ha) was 0 and the “plant injury rating, Bygr” value (Bygr; 2.8025 kg/ha) was 2. The “plant injury rating, Bygr” value (Bygr; 5.6050 kg/ha) was 1, the “plant injury rating, Bygr” value (Bygr; 8.4075 kg/ha) was 1 and the “plant injury rating, Bygr” value (Bygr; 11.2100 kg/ha) was 1. The “plant injury rating, Cobu” value (Cobu; 0.5605 kg/ha) was 0, the “plant injury rating, Cobu” value (Cobu; 1.1210 kg/ha) was 0 and the “plant injury rating, Cobu” value (Cobu; 2.8025 kg/ha) was 1. The “plant injury rating, Cobu” value (Cobu; 5.6050 kg/ha) was 1, the “plant injury rating, Cobu” value (Cobu; 8.4075 kg/ha) was 2 and the “plant injury rating, Cobu” value (Cobu; 11.2100 kg/ha) was 2. The “plant injury rating, Corn” value (Corn; 0.5605 kg/ha) was 1, the “plant injury rating, Corn” value (Corn; 1.1210 kg/ha) was 1 and the “plant injury rating, Corn” value (Corn; 2.8025 kg/ha) was 2. For the same molecule, the “plant injury rating, Corn” value (Corn; 5.6050 kg/ha) was 1, the “plant injury rating, Corn” value (Corn; 8.4075 kg/ha) was 1 and the “plant injury rating, Corn” value (Corn; 11.2100 kg/ha) was 2. The “plant injury rating, Grft” value (Grft; 0.5605 kg/ha) was 1, the “plant injury rating, Grft” value (Grft; 1.1210 kg/ha) was 0 and the “plant injury rating, Grft” value (Grft; 2.8025 kg/ha) was 2. The “plant injury rating, Grft” value (Grft; 5.6050 kg/ha) was 2, the “plant injury rating, Grft” value (Grft; 8.4075 kg/ha) was 1 and the “plant injury rating, Grft” value (Grft; 11.2100 kg/ha) was 1. For the same molecule, the “plant injury rating, Grso” value (Grso; 0.5605 kg/ha) was 0, the “plant injury rating, Grso” value (Grso; 1.1210 kg/ha) was 0 and the “plant injury rating, Grso” value (Grso; 2.8025 kg/ha) was 1. For the same molecule, the “plant injury rating, Grso” value (Grso; 5.6050 kg/ha) was 1, the “plant injury rating, Grso” value (Grso; 8.4075 kg/ha) was 1 and the “plant injury rating, Grso” value (Grso; 11.2100 kg/ha) was 1. For the same molecule, the “plant injury rating, Mogl” value (Mogl; 0.5605 kg/ha) was 1, the “plant injury rating, Mogl” value (Mogl; 1.1210 kg/ha) was 1 and the “plant injury rating, Mogl” value (Mogl; 2.8025 kg/ha) was 1. The “plant injury rating, Mogl” value (Mogl; 5.6050 kg/ha) was 1, the “plant injury rating, Mogl” value (Mogl; 8.4075 kg/ha) was 1 and the “plant injury rating, Mogl” value (Mogl; 11.2100 kg/ha) was 2. The “plant injury rating, Rice” value (Rice; 0.5605 kg/ha) was 0, the “plant injury rating, Rice” value (Rice; 1.1210 kg/ha) was 0 and the “plant injury rating, Rice” value (Rice; 2.8025 kg/ha) was 0. For the same molecule, the “plant injury rating, Rice” value (Rice; 5.6050 kg/ha) was 0, the “plant injury rating, Rice” value (Rice; 8.4075 kg/ha) was 0 and the “plant injury rating, Rice” value (Rice; 11.2100 kg/ha) was 0. For the same molecule, the “plant injury rating, Sobe” value (Sobe; 0.5605 kg/ha) was 0, the “plant injury rating, Sobe” value (Sobe; 1.1210 kg/ha) was 1 and the “plant injury rating, Sobe” value (Sobe; 2.8025 kg/ha) was 1. For the same molecule, the “plant injury rating, Sobe” value (Sobe; 5.6050 kg/ha) was 1, the “plant injury rating, Sobe” value (Sobe; 8.4075 kg/ha) was 1 and the “plant injury rating, Sobe” value (Sobe; 11.2100 kg/ha) was 1. The “plant injury rating, Whez” value (Whez; 0.5605 kg/ha) was 0, the “plant injury rating, Whez” value (Whez; 1.1210 kg/ha) was 0 and the “plant injury rating, Whez” value (Whez; 2.8025 kg/ha) was 0. For the same molecule, the “plant injury rating, Whez” value (Whez; 5.6050 kg/ha) was 0, the “plant injury rating, Whez” value (Whez; 8.4075 kg/ha) was 0 and the “plant injury rating, Whez” value (Whez; 11.2100 kg/ha) was 0. For the same molecule, the “plant injury rating, Dobr” value (Dobr; 0.5605 kg/ha) was 0, the “plant injury rating, Dobr” value (Dobr; 1.1210 kg/ha) was 0 and the “plant injury rating, Dobr” value (Dobr; 2.8025 kg/ha) was 0. The “plant injury rating, Dobr” value (Dobr; 5.6050 kg/ha) was 0, the “plant injury rating, Dobr” value (Dobr; 8.4075 kg/ha) was 0 and the “plant injury rating, Dobr” value (Dobr; 11.2100 kg/ha) was 0.

Reference: patent US5391540A, “Substituted pyridine compounds” (Rohm and Haas Company, priority 1993, dated 1995)
